For orientation: pEC50 means the negative decadic logarithm of the EC50, by convention in mol/L. A lower pEC50 goes with a large EC50. The CC50 is the concentration that lowers cell viability or growth by half. A higher CC50 goes with lower toxicity to the cells.

Our source for the EC50 and CC50 values is ChEMBL document CHEMBL1125491, “Potential prodrug derivatives of 2',3'-didehydro-2',3'-dideoxynucleosides. Preparations and antiviral activities” (J Med Chem, 1992).

Each structure is given as a SMILES string. pEC50: −log10 of the molar value.

For assay [1], the system named is Human immunodeficiency virus 1. As to the kind of experiment: Concentration required to protect 50% of HIV-1 infected MT-4 cells against viral cytopathicity. As to conditions: Human immunodeficiency virus 1, MT4. It is filed as functional, organism-based. Background: Damage to the host cells serves as the signal in cytopathic effect assays.
Assay [2] relates to Human immunodeficiency virus 2. Put plainly: Concentration required to protect 50% of HIV-2 infected MT-4 cells against viral cytopathicity. Format: functional, organism-based. As to conditions: Human immunodeficiency virus 2, MT4.
The next assay concerns MT4. Put plainly: Concentration required to reduce the number of viable uninfected MT-4 cells by 50%. Format: functional. As to conditions: Homo sapiens.

Turning to `Nc1ncnc2c1ncn2[C@H]1CC[C@@H](CO)O1`, the pEC50 is 4.39 in assay [1] and 4.14 in assay [2]. For the same molecule, in the assay with MT4, the CC50 is more than 100 µM.

As to `CC1=CN([C@H]2C[C@H](OP(=O)(O)OC[C@@H]3C=C[C@H](n4ccc(N)nc4=O)O3)[C@@H](CO)O2)C(=O)NC1N` (stereo partly specified), the negative-log EC50 (pEC50) was 5.74 in assay [1] and 5.80 in assay [2]. The same molecule displayed a CC50 in the assay with MT4 of 28 µM.

As to `CC1=CN([C@H]2C[C@H](OP(=O)(O)OC[C@@H]3C=C[C@H](n4cnc5c(N)ncnc54)O3)[C@@H](CO)O2)C(=O)NC1N` (stereo partly specified), the negative logarithm of the EC50 (pEC50) in assay [1] is 4.59; in assay [2], 4.54. The CC50 in the assay on MT4 worked out at 198 µM.

For the molecule `Nc1ccn(C2C=CC(COP(O)(=S)c3ccccc3)O2)c(=O)n1` (stereo unspecified), the pEC50 in assay [1] and in assay [2] was less than 3.30 throughout. For the same molecule, the cytotoxic concentration (CC50) in the assay on MT4 was more than 500 µM.

Regarding `COP(=O)(O)OCC1C=CC(n2cnc3c(N)ncnc32)O1` (stereo unspecified), the pEC50 in assay [1] was 4.42; in assay [2], 4.24. In the assay with MT4, this molecule registered a CC50 of 168 µM.

`COP(=O)(O)OCC1C=CC(n2ccc(N)nc2=O)O1` (stereo unspecified): the negative-log EC50 (pEC50) in assay [1] is 5.51; in assay [2] it was 5.77. Half-maximal cytotoxicity in the assay with MT4 (CC50) was put at 27 µM.

Take `Nc1ncnc2c1ncn2C1C=CC(COP(O)(=S)c2ccccc2)O1` (stereo unspecified): the negative-log EC50 (pEC50) in assay [1] and in assay [2] was less than 3.30 each time. For the same molecule, the cytotoxic concentration (CC50) in the assay with MT4 was more than 500 µM.

With `Nc1ncnc2c1ncn2C1C=CC(COP(=O)(O)Oc2ccccc2)O1` (stereo unspecified), the pEC50 was 4.62 in assay [1] and 4.43 in assay [2]. Also, the 50% cytotoxic concentration (CC50) in the assay on MT4 turned out to be 157 µM.

Turning to `Nc1ccn(C2C=CC(COP(=O)(O)Oc3ccccc3)O2)c(=O)n1` (stereo unspecified), the figures for the pEC50 in assay [1] and in assay [2] were 5.72 and 5.82, respectively. Moreover, the midpoint of cytotoxicity in the assay with MT4, the CC50, lay at 35 µM.

As for `Nc1ccn(C2C=CC(COP(=O)(O)c3ccccc3)O2)c(=O)n1` (stereo unspecified), the negative-log EC50 (pEC50) in assay [1] was 3.95; in assay [2] it was 3.87. In the assay on MT4, this molecule registered a 50% cytotoxic concentration (CC50) of more than 500 µM.

Consider `Nc1ncnc2c1ncn2C1C=CC(COP(=O)(O)c2ccccc2)O1` (stereo unspecified), for which the negative logarithm of the EC50 (pEC50) in assay [1] and in assay [2] was less than 3.30 throughout. This molecule also yielded a CC50 in the assay on MT4 of more than 500 µM.

On to `Nc1ccn([C@H]2CC[C@@H](CO)O2)c(=O)n1` [ZALCITABINE], for which the results for the negative-log EC50 (pEC50) in assay [1] and in assay [2] were 6.04 and 6.16, respectively. In the assay with MT4, the CC50 was 30 µM.
